# Experimental data reported in patent US20250228772A1, “DRUG DELIVERY SYSTEM COMPRISING A REFLUX INHIBITOR FOR THE APPLICATION TO ESOPHAGEAL MUCOUS MEMBRANES” (EsoCap AG, priority 2022, published 2025).
# Experiments:
# [1] = UV/Vis spectroscopy of film samples against a reference sample; assay type: physicochemical; conditions: PVA 18-88/glycerol film, FSG medium pH 1.2, spectrum compared with a reference sample
# Experimental: Further, the film was analyzed for the content of Baclofen. To this end, 6 circular samples with a diameter of 1.9 cm (2.84 cm^2) were cut at random positions of the film and analyzed with a UV/Vis spectroscopy in FSG medium, pH 1.2. The absorption spectrum is shown in FIG. 10 in comparison to a reference sample comprising Baclofen solved in FSG medium, pH 1.2.
# [2] = test system: reflux episodes and transient lower esophageal sphincter relaxations; conditions: meta-analysis of nine clinical studies; cited from earlier work
# [3] = test system: transient lower esophageal sphincter relaxations; conditions: after systemic administration (Lidums 2000); cited from earlier work
# [4] = oral administration, clinical use, 15 to 75 mg per day; cited from earlier work
compound,measurement,setting,value
"NCC(CC(=O)O)c1ccc(Cl)cc1 (stereo not drawn) [Baclofen, 4-Amino-3-(4-chlorphenyl) butyric acid]",stability of Baclofen in the polymer film,[1],can be stably prepared in a film
same,incidence of transient lower esophageal sphincter relaxations,[2],decreased
same,length of reflux episodes,[2],decreased
same,number of reflux episodes,[2],decreased
same,transient lower esophageal sphincter relaxations,[3],control transient lower esophageal sphincter relaxations
same,tolerability / side effects,[4],poor tolerability due to severe side effects
